Measured values published in PMC8631675, “Neuroprotective effects of some epigenetic modifying drugs’ on Chlamydia pneumoniae-induced neuroinflammation: A novel model” (PLoS ONE, 2021).
Like-named read-outs stand apart in the source and are kept apart here.

How the values were obtained:
[1] = test system: differentiated SH-SY5Y cells; experiment: Cell proliferation (cytotoxicity) analysis with xCELLigence, SH-SY5Y; format: cell-based, human
Description: (§1) Cell proliferation analysis was performed with xCELLigence Real-Time Cell Analysis System to assess TSA, RG108, givinostat, and rifampin concentrations for use in both models. Differentiated SH-SY5Y and HMC3 microglia cells were seeded at a 5x10^3 density per well and incubated 24 h until CI values reached a log phase. The system stopped at the end of 24 h, 100, 10 and 1 μM TSA, givinostat, RG108 and rifampin were applied on current media and the cell viability was tracked. […] Simultaneously, slope plots were drawn using the CI values at 24 and 48 hours, and the statistical significance of the values discovered by assuming the average CI values of the control wells to be 100% was calculated.

[2] = test system: differentiated SH-SY5Y cells; experiment: Cell viability against Aβ-induced neurotoxicity, xCELLigence; format: cell-based, human; details: 24 h pretreatment (drugs 100 nM; CFS 1 μg/ml + IFN-γ; LPS 100 ng/ml + IFN-γ), then 5 μM Aβ (1–42) aggregates 24 h
Description: Pathological deterioration in AD is mainly associated with overproduction of the Aβ peptide and the Aβ (1–42) variant is the toxic form that is more predominant in Alzheimer’s patients. In this study, a modified oligomeric Aβ (1–42) neurotoxicity analysis protocol was applied in order to elucidate the effects of treatment groups on SH-SY5Y cell viability in the presence of Aβ [56]. In order to model Aβ-induced neurotoxicity in vitro, an oligomeric form of the Aβ1–42 peptide was prepared by diluting with ice-cold Ham’s F12 Nutrient Mixture medium dissolved in PBS containing 0.02 M NaOH at a final concentration of 50 μM and kept in a 37°C incubator for 7 days to form peptide aggregates prior to the experiments. 5x10^3 SH-SY5Y cells were differentiated inside the xCELLigence instrument for 5 days and treated with 100 nM TSA, RG108, givinostat, rifampin; 100 ng/ml LPS+IFN-ɣ or 1 μg/ml CFS+IFN-ɣ for 24 h in order to evaluate neuroprotection. The co-culture was performed in the same way as the neuroinflammation model. Neurotoxicity was obtained instead of neuroinflammation by diluting to 5 μM with fresh medium and adding Aβ1–42 aggregates to the wells for 24 h in 100 μl of medium. Cell viability data was then monitored for 24 h and analyzed within the instrument.

SH-SY5Y cells = experiment: Total ROS/Superoxide detection; format: cell-based, human
Description: The Total ROS/Superoxide Detection Kit (ENZ-51010, Enzo) was used according to the kit process for evaluating the protective effects of the treatment groups on SH-SY5Y cells seeded at a 2x10^4 density per well in 96-well plates and Aβ was applied. ROS inhibitor N-acetyl cysteine (NAC) was applied at 5 mM concentration to negative control groups 30 minutes before the experiment and after incubation, 100 μL of “ROS/Superoxide Detection Solution” was added to the wells in the kit. The same procedure was done without the application of ROS inhibitor. Fluorometric analysis of stained cells was analyzed with Cytation 3 Cell Imaging Multi-Mode Reader (BioTek) using 490/525 nm and 550/620 nm filter sets.

HMC3 microglia cells = experiment: Cell proliferation (cytotoxicity) analysis with xCELLigence, HMC3; format: cell-based, human
Description: as §1

motor neurons = test system: motor neurons; parameters: method as in PMID 23900692; details: inhibiting DNMT catalytic activity; cited from earlier work
[3] = test system: differentiated SH-SY5Y cells; experiment: Annexin V-PI staining of Aβ-induced cell death, flow cytometry; format: cell-based, human; details: pretreatment (drugs 100 nM; LPS 100 ng/ml + IFN-γ; CFS 1 μg/ml + IFN-γ) + 5 μM Aβ 24 h
Description: To determine neuronal apoptosis associated with Aβ exposure, 25x10^3 differentiated SH-SY5Y cells were seeded in 24-well plates and Aβ was applied. After 24 h, cells were trypsinized and staining was performed according to the CF 488A Annexin V and PI Apoptosis Kit (Biotium, USA, Cat. No: 30061) protocol. After washing the cells with 1xPBS, the working solution was prepared by diluting the PI with Annexin V binding buffer included in the kit. 5 μl Annexin V and 2 μl PI working solution were added to the centrifuge tubes and binded with 100 μl Annexin V binding buffer. After the samples were incubated for 30 minutes on ice and in the dark, 400 μl of Annexin V binding buffer was added to each tube and the samples were measured and analyzed in a BD Accuri™ C6 flow cytometry device.

Compound: O=C(O)C(Cc1c[nH]c2ccccc12)N1C(=O)c2ccccc2C1=O (stereo not shown) [RG108]
- Reduction of differentiated SH-SY5Y cell viability ([1]; 1 μM, 24 hours): 21.98%
- Reduction of differentiated SH-SY5Y cell viability ([1]; 1 μM, 48 hours): 15.47%
- Reduction of differentiated SH-SY5Y cell viability ([1]; 10 μM, 24 hours): 43.73%
- Reduction of differentiated SH-SY5Y cell viability ([1]; 10 μM, 48 hours): 33.89%
- Reduction of differentiated SH-SY5Y cell viability ([1]; 100 μM, 24 hours): 64.03%
- Reduction of differentiated SH-SY5Y cell viability ([1]; 100 μM, 48 hours): 53.43%
- IC50 ([1]; from CI values at 24th hour, 1, 10 and 100 μM tested, read-out: IC50 Values 24h SH-SY5Y): 1.49 µM
- IC50 ([1]; from CI values at 48th hour, 1, 10 and 100 μM tested, read-out: IC50 Values 48h SH-SY5Y): 9.6 µM
- CI values compared to the control group [2]: 120.7%
- Increase of total amount of ROS compared to the control group, with NAC (SH-SY5Y cells; 30 minutes NAC 5 mM, treated (drugs 100 nM; LPS 100 ng/ml; CFS 1 μg/ml, with IFN-γ) prior to Aβ exposure): 4.29%
- Decrease of total ROS amount according to the Aβ group (SH-SY5Y cells; cells treated (drugs 100 nM; LPS 100 ng/ml; CFS 1 μg/ml, with IFN-γ) before exposure to Aβ, without NAC): 52.61%
- Decrease of total amount of ROS compared to the control group (SH-SY5Y cells; cells treated with compounds (100 nM) before exposure to Aβ, without NAC): 9.03%
- Reduction of HMC3 cell viability compared to the control group (HMC3 microglia cells; 10 μM, 24 hours): 3.12%
- Reduction of HMC3 cell viability compared to the control group (HMC3 microglia cells; 10 μM, 48 hours): 8.33%
- Reduction of HMC3 cell viability compared to the control group (HMC3 microglia cells; 100 μM, 24 hours): 43.26%
- Reduction of HMC3 cell viability compared to the control group (HMC3 microglia cells; 100 μM, 48 hours): 57.56%
- IC50 (HMC3 microglia cells; from CI values at 24th hour, 1, 10 and 100 μM tested, read-out: IC50 Values 24h HMC3): > 400 µM
- IC50 (HMC3 microglia cells; from CI values at 48th hour, 1, 10 and 100 μM tested, read-out: IC50 Values 48h HMC3): > 400 µM
- Effect on motor neurons (motor neurons): protect motor neurons from excessive DNA methylation and apoptosis
- Necrotic effect (Q5-UL) ([3]; control 1.6%): 6.6%
- Apoptotic effect (early apoptosis + late apoptosis) ([3]; control 1.9%): 4.3%
- Percentage of living cells (Live) ([3]; control 96.5%): 89.1%
